Laboratory results as given in the NIST ThermoML archive (doi:10.1016/j.jct.2006.07.018).

Experiment: mn = molality of the nth substance listed, in mol/kg
Details: 350 kPa, Liquid, Vibrating tube method

CSCC[C@H](N)C(=O)O [L-methionine] + O
mass density [kg/m3]
Details	m1 = 0.0125	m1 = 0.025	m1 = 0.05	m1 = 0.0997	m1 = 0.1501	m1 = 0.1929
278.15 K	1000.87	1001.33	1002.43	1005.13	1007.08	1008.66
283.15 K	1000.6	1001.06	1002.07	1004.77	1006.7	1008.25
288.15 K	999.97	1000.44	1001.43	1004.07	1005.97	1007.5
298.15 K	997.89	998.35	999.32	1001.89	1003.72	1005.21
308.15 K	994.85	995.32	996.3	998.76	1000.54	1002.01
318.15 K	991.01	991.47	992.35	994.85	996.62	998.08
328.15 K	986.48	986.94	987.79	990.26	992	993.45
338.15 K	981.32	981.79	982.66	985.05	986.79	988.23
348.15 K	975.6	976.09	976.97	979.29	981.03	982.49
358.15 K	969.38	969.84	970.77	973.02	974.79	976.26
368.15 K	962.63	963.11	964.09	966.29	968.05	969.51
